Columns and labels:
[1] = target: Ku complex (Homo sapiens, UniProt P12956+P13010); assay: microwell protein induced fluorescent enhancement assay (mwPIFE) of Ku-DNA binding
Experimental: A rapid method for detecting protein-nucleic acid interactions by protein induced fluorescence enhancement. Sci Rep 6, 39653. mwPIFE is based on enhanced fluorescence of cyanine fluorophores attached to nucleic acid probes upon protein binding. […] The probe was immobilized in 96 well plates through biotin (Btn) attached to one end of DNA and incubated with purified Ku complex (0.5 pmol) in 50 µl of binding buffer (10 mM calcium acetate, 60 mM potassium acetate, 20 mM TRISacetate pH 7.9, 100 mg BSA/1). Ku-DNA binding was calculated from altered fluorescence measured by a fluorescence plate reader (Valuchova et al., 2016). […]

[2] = test system: HCT116 cells; assay: DNA damage induction, immunodetection of γH2AX in nuclei; type: cell-based, human; details: HCT116 incubated for 1 day
Experimental: iKU-1 induces DNA damage in treated cells (Figure 3). HCT116 cells were incubated for 1 day in McCoy's 5a medium with 10% Fetal Bovine Serum, 2 mM L-Glutamine and Penicilin/Streptomycin 200 U/l each and supplemented with iKU-1. DNA damage induction was assessed by immunodetection of yH2AX in nuclei with specific antibody (Anti-phospho-Histone H2A.X (Ser139) Antibody, clone JBW301, Merck; dilution 1:500) and Alexa Fluor-conjugated secondary antibody (Goat anti-Mouse IgG (H+L) Highly Cross-Adsorbed Secondary Antibody, Alexa Fluor™ Plus 647, Invitrogen/Thermofisher; dilution 1:500).

[3] = test system: HCT116 cells; assay: C-circle assay (extrachromosomal circular telomeric DNA); type: cell-based, human; details: C-circle assay in HCT116 cells treated for 3 to 7 days
Experimental: HCT116 cell were incubated for 3, 5 or 7 days in McCoy's 5a medium with 10% Fetal Bovine Serum, 2 mM L-Glutamine and Penicilin/Streptomycin 200 U/l each and supplemented with Compound 1-9. C-circle assay that utilizes rolling circle amplification of circular DNA by φ29 polymerase was performed as described in Henson, J.D., Lau, L.M., Koch, S., Martin La Rotta, N., Dagg, R.A., and Reddel, R.R. (2017). The C-Circle Assay for alternative-lengthening-of-telomeres activity. Methods 114, 74-84. Amplified circular telomeric DNA was detected by dot blot hybridization with P^32-labeled telomeric DNA oligonucleotide (5'-[…]-3' (SEQ ID NO: 6)) (Figure 4).

[4] = test system: HCT116 cells; assay: cell proliferation, ATPlite assay; type: cell-based; details: Homo sapiens, HCT-116, 120 h, read-out: Inhibition of cell proliferation IC50
Experimental: HCT116, U2OS and HeLa cells were grown in McCoy's 5a medium supplemented with 10% Fetal Bovine Serum, 2 mM L-Glutamine and Penicilin/Streptomycin 200 U/l each in the presence of Compound 1-9. After growth at 37 °C, 5% CO2 for 3 days, monolayer of cells was detached using TrypLE Express (Gibco), cells were counted using 0.4% trypan blue stain and hemocytometer. […] Number of viable cells was estimated using ATPlite kit (Perkin Elmer).

[5] = test system: HCT116; assay: combination with BIBR1532, relative growth by ATPlite; type: cell-based, human
Experimental: 10,000 HCT116 cells were seeded in 100 µl of McCoy's 5a medium supplemented with 10% Fetal Bovine Serum, 2 mM L-Glutamine and Penicilin/Streptomycin 200 U/l for 1 day in 96well plate and treated with 10 µM BIBR1532, 0.25 µM of iKU-1 or their combination for 4 days. Number of viable cells was measured by ATPlite kit (Perkin Elmer) and normalized to the treatment with 0.5% DMSO. The results presented in Table 2 show a synergistic effect of iKU-1 and BIBR1532 on the growth of HCT116 tumor cell line. Values in the table indicate relative growth assessed by ATPlite kit compared to the control sample treated with 0.5% DMSO after 4 days of treatment.

Sequence of Ku complex (P12956 whole entry): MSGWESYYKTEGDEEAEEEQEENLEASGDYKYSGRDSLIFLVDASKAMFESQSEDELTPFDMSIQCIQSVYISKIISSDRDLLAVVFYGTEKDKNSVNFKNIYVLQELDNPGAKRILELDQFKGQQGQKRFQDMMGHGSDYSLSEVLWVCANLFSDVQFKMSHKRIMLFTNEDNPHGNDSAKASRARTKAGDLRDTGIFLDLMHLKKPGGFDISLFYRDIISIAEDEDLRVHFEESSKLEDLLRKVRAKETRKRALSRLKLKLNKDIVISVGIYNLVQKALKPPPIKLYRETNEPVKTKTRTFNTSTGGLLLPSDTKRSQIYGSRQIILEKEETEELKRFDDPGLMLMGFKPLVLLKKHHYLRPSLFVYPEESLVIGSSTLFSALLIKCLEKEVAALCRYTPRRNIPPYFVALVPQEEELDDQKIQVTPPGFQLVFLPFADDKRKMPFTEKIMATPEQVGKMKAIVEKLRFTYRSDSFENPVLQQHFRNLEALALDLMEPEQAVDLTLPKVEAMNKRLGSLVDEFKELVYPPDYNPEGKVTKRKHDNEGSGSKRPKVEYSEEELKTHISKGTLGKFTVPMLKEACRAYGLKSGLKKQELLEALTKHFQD
Sequence of Ku complex (P13010 whole entry): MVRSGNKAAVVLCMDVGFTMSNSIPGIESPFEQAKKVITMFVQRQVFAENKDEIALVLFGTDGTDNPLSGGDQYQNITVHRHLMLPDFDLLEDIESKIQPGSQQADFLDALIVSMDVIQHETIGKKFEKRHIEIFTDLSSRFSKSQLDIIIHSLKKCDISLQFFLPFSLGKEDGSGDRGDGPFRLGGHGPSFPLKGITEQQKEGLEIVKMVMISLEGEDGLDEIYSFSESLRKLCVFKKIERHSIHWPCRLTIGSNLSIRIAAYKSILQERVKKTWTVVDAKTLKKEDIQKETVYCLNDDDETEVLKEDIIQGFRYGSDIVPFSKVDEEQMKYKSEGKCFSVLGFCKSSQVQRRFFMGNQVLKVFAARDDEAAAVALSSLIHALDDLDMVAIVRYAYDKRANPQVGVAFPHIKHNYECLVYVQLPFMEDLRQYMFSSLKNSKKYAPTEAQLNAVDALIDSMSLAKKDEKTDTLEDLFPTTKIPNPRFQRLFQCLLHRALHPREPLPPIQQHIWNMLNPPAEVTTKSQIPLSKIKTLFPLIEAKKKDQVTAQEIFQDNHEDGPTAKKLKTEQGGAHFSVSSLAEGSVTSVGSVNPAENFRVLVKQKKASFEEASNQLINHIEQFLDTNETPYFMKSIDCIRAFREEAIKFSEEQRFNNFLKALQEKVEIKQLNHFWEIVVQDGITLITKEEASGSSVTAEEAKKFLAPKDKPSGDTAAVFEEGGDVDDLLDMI

O=C(Nc1nc(-c2ccccn2)cs1)c1cncc(Br)c1 [Compound 1]
IC50 ([1]; mwPIFE, estimated from the 0.5 to 8 µM concentration range, read-out: Inhibition of Ku-DNA binding IC50): 3000 nM | remaining activity at 8 µM ([1]; read-out: % binding at 8 µM (100% = 0.5% DMSO)): 5% | DNA damage induction (γH2AX signal) [2]: formation of either nuclear foci or whole nuclear staining in a subset of cells | Concentration inducing c-circle formation [3]: 1 µM | IC50 [4]: 500 nM | interaction with BIBR1532 on growth ([5]; HCT116, 10 µM BIBR1532 with 0.25 µM iKU-1, 4 days): synergism | relative growth assessed by ATPlite kit compared to the control sample treated with 0.5% DMSO ([5]; HCT116, 10 µM BIBR1532, 0.25 µM iKU-1 or their combination, 4 days): 1.17
